Laboratory results reported in ChEMBL document CHEMBL3885881, “DrugMatrix”.

Species: Rattus norvegicus
Experiment: DrugMatrix - Regimen: Daily Repeat
Assay type: toxicity, organism-based, Sprague-Dawley
Design: regimen Daily Repeat, gender Male, age 6-8 weeks
Settings: in vivo, po, route oral GAVAGE, vehicle 100 % SALINE; for ABSOLUTE BASOPHIL / ABSOLUTE EOSINOPHIL / ABSOLUTE LYMPHOCYTE / ABSOLUTE MONOCYTE / ABSOLUTE SEGMENTED NEUTROPHIL / BASOPHIL / EOSINOPHIL / ERYTHROCYTE COUNT / HEMATOCRIT / HEMOGLOBIN / LEUKOCYTE COUNT / LYMPHOCYTE / MEAN CORPUSCULAR HEMOGLOBIN / MEAN CORPUSCULAR HEMOGLOBIN CONCENTRATION / MONOCYTE / NEUTROPHIL / NUCLEATED RED BLOOD CELLS / PLATELET COUNT: tissue Blood; for ALANINE AMINOTRANSFERASE / ALBUMIN / ALKALINE PHOSPHATASE / ASPARTATE AMINOTRANSFERASE / BLOOD UREA NITROGEN / CARBON DIOXIDE / CHOLESTEROL / CREATINE PHOSPHOKINASE / CREATININE / GLUCOSE / LACTATE DEHYDROGENASE / LIPASE / POTASSIUM / SODIUM / TOTAL BILIRUBIN / TOTAL PROTEIN / URIC ACID: tissue Plasma
[1] = 330 mg/kg, 120 h, dose level Low, time 5 day
[2] = 980 mg/kg, 72 h, dose level High, time 3 day
[3] = 980 mg/kg, 120 h, dose level High, time 5 day

With `Nc1nc2c(ncn2COCCO)c(=O)[nH]1` [ACYCLOVIR] the “ABSOLUTE BASOPHIL” value [1] was 0 CELLS/uL, the “ABSOLUTE EOSINOPHIL” value [1] was 23.33 CELLS/uL and the “ABSOLUTE LYMPHOCYTE” value [1] was 6827.33 CELLS/uL. The “ABSOLUTE MONOCYTE” value [1] was 23.33 CELLS/uL, the “ABSOLUTE SEGMENTED NEUTROPHIL” value [1] was 459.33 CELLS/uL and the BASOPHIL [1] was 0%. The EOSINOPHIL [1] was 0.33%, the “ERYTHROCYTE COUNT” value [1] was 5.77 x10E6/uL and the HEMATOCRIT [1] was 36%. The HEMOGLOBIN [1] was 13.93 G/DL, the “LEUKOCYTE COUNT” value [1] was 7.33 x10E3/uL and the LYMPHOCYTE [1] was 92.67%. The “MEAN CORPUSCULAR HEMOGLOBIN” value [1] was 24.17 pg, the “MEAN CORPUSCULAR HEMOGLOBIN CONCENTRATION” value [1] was 38.7 G/DL and the MONOCYTE [1] was 0.33%. The NEUTROPHIL [1] was 6.67%, the “NUCLEATED RED BLOOD CELLS” value [1] was 0 /100WBC and the “PLATELET COUNT” value [1] was 980.67 x10E3/uL. For the same compound, the “ALANINE AMINOTRANSFERASE” value [1] was 54 u/L, the ALBUMIN [1] was 4.1 G/DL and the “ALKALINE PHOSPHATASE” value [1] was 310 u/L. The “ASPARTATE AMINOTRANSFERASE” value [1] was 89.33 u/L, the “BLOOD UREA NITROGEN” value [1] was 14 mg/dL and the “CARBON DIOXIDE” value [1] was 31 mmol/L. For the same compound, the CHOLESTEROL [1] was 71.33 mg/dL, the “CREATINE PHOSPHOKINASE” value [1] was 331 u/L and the CREATININE [1] was 0.35 mg/dL. The GLUCOSE [1] was 149.67 mg/dL, the “LACTATE DEHYDROGENASE” value [1] was 119.33 u/L and the LIPASE [1] was 11.67 u/L. The POTASSIUM [1] was 6.3 MEQ/L, the SODIUM [1] was 145.23 MEQ/L and the “TOTAL BILIRUBIN” value [1] was 0.17 mg/dL. The “TOTAL PROTEIN” value [1] was 5.87 G/DL, the “URIC ACID” value [1] was 0.97 mg/dL and the “ABSOLUTE BASOPHIL” value [2] was 0 CELLS/uL. For the same compound, the “ABSOLUTE EOSINOPHIL” value [2] was 28.33 CELLS/uL, the “ABSOLUTE LYMPHOCYTE” value [2] was 6898 CELLS/uL and the “ABSOLUTE MONOCYTE” value [2] was 45.67 CELLS/uL. For the same compound, the “ABSOLUTE SEGMENTED NEUTROPHIL” value [2] was 428 CELLS/uL, the BASOPHIL [2] was 0% and the EOSINOPHIL [2] was 0.33%. The “ERYTHROCYTE COUNT” value [2] was 5.27 x10E6/uL, the HEMATOCRIT [2] was 32.97% and the HEMOGLOBIN [2] was 12.8 G/DL. The “LEUKOCYTE COUNT” value [2] was 7.4 x10E3/uL, the LYMPHOCYTE [2] was 93% and the “MEAN CORPUSCULAR HEMOGLOBIN” value [2] was 24.37 pg. For the same compound, the “MEAN CORPUSCULAR HEMOGLOBIN CONCENTRATION” value [2] was 38.87 G/DL, the MONOCYTE [2] was 0.67% and the NEUTROPHIL [2] was 6%. The “NUCLEATED RED BLOOD CELLS” value [2] was 0 /100WBC, the “PLATELET COUNT” value [2] was 1125.67 x10E3/uL and the “ALANINE AMINOTRANSFERASE” value [2] was 47.33 u/L. For the same compound, the ALBUMIN [2] was 4.07 G/DL, the “ALKALINE PHOSPHATASE” value [2] was 321 u/L and the “ASPARTATE AMINOTRANSFERASE” value [2] was 79.33 u/L. The “BLOOD UREA NITROGEN” value [2] was 12.67 mg/dL, the “CARBON DIOXIDE” value [2] was 28.33 mmol/L and the CHOLESTEROL [2] was 67.33 mg/dL. The “CREATINE PHOSPHOKINASE” value [2] was 458 u/L, the CREATININE [2] was 0.23 mg/dL and the GLUCOSE [2] was 154 mg/dL. The “LACTATE DEHYDROGENASE” value [2] was 123 u/L, the LIPASE [2] was 9.67 u/L and the POTASSIUM [2] was 5.85 MEQ/L. The SODIUM [2] was 142.43 MEQ/L, the “TOTAL BILIRUBIN” value [2] was 0.17 mg/dL and the “TOTAL PROTEIN” value [2] was 5.77 G/DL. For the same compound, the “URIC ACID” value [2] was 0.9 mg/dL, the “ABSOLUTE BASOPHIL” value [3] was 0 CELLS/uL and the “ABSOLUTE EOSINOPHIL” value [3] was 32 CELLS/uL. The “ABSOLUTE LYMPHOCYTE” value [3] was 9269.33 CELLS/uL, the “ABSOLUTE MONOCYTE” value [3] was 115 CELLS/uL and the “ABSOLUTE SEGMENTED NEUTROPHIL” value [3] was 383.67 CELLS/uL. The BASOPHIL [3] was 0%, the EOSINOPHIL [3] was 0.33% and the “ERYTHROCYTE COUNT” value [3] was 5.83 x10E6/uL. For the same compound, the HEMATOCRIT [3] was 35.13%, the HEMOGLOBIN [3] was 13.9 G/DL and the “LEUKOCYTE COUNT” value [3] was 9.8 x10E3/uL. The LYMPHOCYTE [3] was 94.33%, the “MEAN CORPUSCULAR HEMOGLOBIN” value [3] was 23.83 pg and the “MEAN CORPUSCULAR HEMOGLOBIN CONCENTRATION” value [3] was 39.6 G/DL. The MONOCYTE [3] was 1.33%, the NEUTROPHIL [3] was 4% and the “NUCLEATED RED BLOOD CELLS” value [3] was 0.33 /100WBC. For the same compound, the “PLATELET COUNT” value [3] was 783 x10E3/uL, the “ALANINE AMINOTRANSFERASE” value [3] was 46.67 u/L and the ALBUMIN [3] was 4.17 G/DL. The “ALKALINE PHOSPHATASE” value [3] was 320.33 u/L, the “ASPARTATE AMINOTRANSFERASE” value [3] was 74 u/L and the “BLOOD UREA NITROGEN” value [3] was 15.67 mg/dL. The “CARBON DIOXIDE” value [3] was 29.33 mmol/L, the CHOLESTEROL [3] was 57.67 mg/dL and the “CREATINE PHOSPHOKINASE” value [3] was 253.33 u/L. The CREATININE [3] was 0.44 mg/dL, the GLUCOSE [3] was 155.67 mg/dL and the “LACTATE DEHYDROGENASE” value [3] was 135.67 u/L. The LIPASE [3] was 12 u/L, the POTASSIUM [3] was 5.65 MEQ/L and the SODIUM [3] was 145.17 MEQ/L. The “TOTAL BILIRUBIN” value [3] was 0.17 mg/dL, the “TOTAL PROTEIN” value [3] was 5.83 G/DL and the “URIC ACID” value [3] was 0.83 mg/dL.
